From US8012939B2 (Tibotec Pharmaceuticals Ltd. Co, priority 2005, dated 2011)

Experiments:
[1] = test system: HCV replicons (HCV type 1b, Huh-7 luc/neo cells); test: Replicon assay (Huh-Luc cells, luciferase read-out); type: cell-based; conditions: Hepatitis C virus, Huh-7, 72 h
Excerpt: The compounds of formula (I) were examined for activity in the inhibition of HCV RNA replication in a cellular assay. […] The cellular assay was based on a bicistronic expression construct, as described by Lohmann et al. (1999) Science vol. 285 pp. 110-113 with modifications described by Krieger et al. (2001) Journal of Virology 75: 4614-4624, in a multi-target screening strategy. In essence, the method was as follows.
The assay utilized the stably transfected cell line Huh-7 luc/neo (hereafter referred to as Huh-Luc). This cell line harbors an RNA encoding a bicistronic expression construct comprising the wild type NS3-NS5B regions of HCV type 1b translated from an Internal Ribosome Entry Site (IRES) from encephalomyocarditis virus (EMCV), preceded by a reporter portion (FfL-luciferase), and a selectable marker portion (neo^R, neomycine phosphotransferase). The construct is bordered by 5′ and 3′ NTRs (non-translated regions) from HCV type 1b. Continued culture of the replicon cells in the presence of G418 (neo^R) is dependent on the replication of the HCV RNA. The stably transfected replicon cells that express HCV RNA, which replicates autonomously and to high levels, encoding inter alia luciferase, are used for screening the antiviral compounds.
The replicon cells were plated in 384 well plates in the presence of the test and control compounds which were added in various concentrations. Following an incubation of three days, HCV replication was measured by assaying luciferase activity (using standard luciferase assay substrates and reagents and a Perkin Elmer ViewLux™ ultraHTS microplate imager). Replicon cells in the control cultures have high luciferase expression in the absence of any inhibitor. The inhibitory activity of the compound on luciferase activity was monitored on the Huh-Luc cells, enabling a doseresponse curve for each test compound.

[2] = target: T1, HCV NS3/4A protease complexes (full-length hepatitis C NS3 protease enzyme with NS4A cofactor) (Hepatitis C virus genotype 1a, UniProt P27958); test: Inhibition assay (enzymatic assay, depsipeptide substrate hydrolysis); type: biochemical; conditions: enzyme 1 nM, 25 μM NS4A cofactor, 0.5 μM substrate, 30° C., pH 7.5, model for competitive inhibition
T1 construct: full-length hepatitis C NS3 protease enzyme
Experimental: [Landro, 1997 #Biochem 36 9340-9348]. […] The solutions were stored at −20° C. between measurements.
[Liu, 1999 Analytical Biochemistry 267 331-335].

[3] = Huh-Luc cells, incubation of three days, luciferase activity

T1 sequence (P27958 1027-1657, one chain of several): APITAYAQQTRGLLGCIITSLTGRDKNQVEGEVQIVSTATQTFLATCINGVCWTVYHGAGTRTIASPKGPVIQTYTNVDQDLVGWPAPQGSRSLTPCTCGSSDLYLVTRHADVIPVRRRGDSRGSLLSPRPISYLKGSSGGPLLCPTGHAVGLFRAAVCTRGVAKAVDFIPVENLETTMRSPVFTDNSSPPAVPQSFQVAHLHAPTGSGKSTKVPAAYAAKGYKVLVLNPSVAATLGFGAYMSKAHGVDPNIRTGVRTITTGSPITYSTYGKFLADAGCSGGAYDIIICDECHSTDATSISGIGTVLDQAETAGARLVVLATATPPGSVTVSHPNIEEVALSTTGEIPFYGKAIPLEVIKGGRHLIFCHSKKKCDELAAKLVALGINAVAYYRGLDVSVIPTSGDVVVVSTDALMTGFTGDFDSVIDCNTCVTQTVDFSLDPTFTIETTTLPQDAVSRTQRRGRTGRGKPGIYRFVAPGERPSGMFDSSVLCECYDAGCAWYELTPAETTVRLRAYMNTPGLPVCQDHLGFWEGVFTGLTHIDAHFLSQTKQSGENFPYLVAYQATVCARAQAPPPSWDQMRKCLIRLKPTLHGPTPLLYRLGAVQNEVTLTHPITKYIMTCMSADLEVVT

Structure (SMILES)	EC50 [1, 3] [µM]	Ki [2] [µM]	EC50 [1] [µM]
COc1ccc2c(OC3CC4C(=O)NC5(C(=O)O)CC5C=CCCCCN(C)C(=O)C4C3)nc(-c3nc(C4CC4)cs3)cc2c1 (stereo not shown) [Compound 29, 17-[3-(4-cyclopropylthiazol-2-yl)-6-methoxy-isoquinolin-1-yloxy]-13-methyl-2,14-dioxo-3,13-diazatricyclo[13.3.0.0^4,6]octadec-7-ene-4-carboxylic acid]	> 10	0.15	
COc1ccc2c(O[C@@H]3C[C@H]4C(=O)N[C@]5(C(=O)NS(=O)(=O)C6CC6)C[C@H]5/C=C\CCCCN(C)C(=O)[C@@H]4C3)nc(-c3nc(C4CC4)cs3)cc2c1 [Compound 30, N-[17-[3-(4-cyclopropylthiazol-2-yl)-6-methoxyisoquinolin-1-yloxy]-13-methyl-2,14-dioxo-3,13-diazatricyclo[13.3.0.0^4,6]octadec-7-ene-4-carbonyl](cyclopropyl)sulfonamide]	3.03	0.0017	
COc1ccc2c(O[C@@H]3C[C@H]4C(=O)N[C@]5(C(=O)O)C[C@H]5/C=C\CCCCN(C)C(=O)[C@@H]4C3)nc(-c3nc(C(C)C)cs3)cc2c1 [Compound 31, 17-[3-(4-isopropylthiazol-2-yl)-6-methoxyisoquinolin-1-yloxy]-13-methyl-2,14-dioxo-3,13-diazatricyclo[13.3.0.0^4,6]octadec-7-ene-4-carboxylic acid]	> 10	0.3	
COc1ccc2c(O[C@@H]3C[C@H]4C(=O)N[C@]5(C(=O)NS(=O)(=O)C6CC6)C[C@H]5/C=C\CCCCN(C)C(=O)[C@@H]4C3)nc(-c3nc(C(C)C)cs3)cc2c1 [Compound 32, N-[17-[3-(4-isopropylthiazol-2-yl)-6-methoxyisoquinolin-1-yloxy]-13-methyl-2,14-dioxo-3,13-diazatricyclo[13.3.0.0^4,6]octadec-7-ene-4-carbonyl](cyclopropyl)sulfonamide]	3.57	0.0014	
COc1ccc2c(O[C@@H]3C[C@H]4C(=O)N[C@]5(C(=O)O)C[C@H]5/C=C\CCCCN(C)C(=O)[C@@H]4C3)nc(-c3csc(NC(C)C)n3)cc2c1 [Compound 33, 17-[3-(2-isopropylaminothiazol-4-yl)-6-methoxyisoquinolin-1-yloxy]-13-methyl-2,14-dioxo-3,13-diazatricyclo[13.3.0.0^4,6]octadec-7-ene-4-carboxylic acid]	47.5	> 1	
COc1ccc2c(O[C@@H]3C[C@H]4C(=O)N[C@]5(C(=O)NS(=O)(=O)C6CC6)C[C@H]5/C=C\CCCCN(C)C(=O)[C@@H]4C3)nc(-c3csc(NC(C)C)n3)cc2c1 [Compound 34, N-[17-[3-(2-isopropylaminothiazol-4-yl)-6-methoxyisoquinolin-1-yloxy]-13-methyl-2,14-dioxo-3,13-diazatricyclo[13.3.0.0^4,6]octadec-7-ene-4-carbonyl](cyclopropyl)sulfonamide]	1.65	0.0033	
COc1ccc2c(O[C@@H]3C[C@H]4C(=O)N[C@]5(C(=O)O)C[C@H]5/C=C\CCCCN(C)C(=O)[C@@H]4C3)nc(-n3cccn3)cc2c1 [Compound 35, 17-[3-(pyrazol-1-yl)-6-methoxyisoquinolin-1-yloxy]-13-methyl-2,14-dioxo-3,13-diazatricyclo[13.3.0.0^4,6]octadec-7-ene-4-carboxylic acid]		> 1	20.9
COc1ccc2c(O[C@@H]3C[C@H]4C(=O)N[C@]5(C(=O)NS(=O)(=O)C6CC6)C[C@H]5/C=C\CCCCN(C)C(=O)[C@@H]4C3)nc(-n3cccn3)cc2c1 [Compound 36, N-[17-[3-(pyrazol-1-yl)-6-methoxyisoquinolin-1-yloxy]-13-methyl-2,14-dioxo-3,13-diazatricyclo[13.3.0.0^4,6]octadec-7-ene-4-carbonyl]-(cyclopropyl) sulfonamide]	0.072	0.0007	
COc1ccc2c(O[C@@H]3C[C@H]4C(=O)N[C@]5(C(=O)O)C[C@H]5/C=C\CCCCN(C)C(=O)N4C3)nc(Cl)cc2c1 [Compound 42, 17-(3-chloro-6-methoxyisoquinolin-1-yloxy)-13-methyl-2,14-dioxo-3,13,15-triaza-tricyclo[13.3.0.0^4,6]octadec-7-ene-4-carboxylic acid]	> 10	0.62	
COc1ccc2c(O[C@@H]3C[C@H]4C(=O)N[C@]5(C(=O)NS(=O)(=O)C6CC6)C[C@H]5/C=C\CCCCN(C)C(=O)N4C3)nc(Cl)cc2c1 [Compound 43, N-[17-(3-chloro-6-methoxyisoquinolin-1-yloxy)-13-methyl-2,14-dioxo-3,13,15-triaza-tricyclo[13.3.0.0^4,6]octadec-7-ene-4-carbonyl](cyclopropyl) sulfonamide]	2.1	0.015	
COc1ccc2c(O[C@@H]3C[C@H]4C(=O)N[C@]5(C(=O)O)C[C@H]5/C=C\CCCCN(C)C(=O)N4C3)nccc2c1Br [Compound 50, 17-(5-bromo-6-methoxyisoquinolin-1-yloxy)-13-methyl-2,14-dioxo-3,13,15-triazatricyclo[13.3.0.0^4,6]octadec-7-ene-4-carboxylic acid]		> 1	
COc1ccc2c(O[C@@H]3C[C@H]4C(=O)N[C@]5(C(=O)NS(=O)(=O)C6CC6)C[C@H]5/C=C\CCCCN(C)C(=O)N4C3)nccc2c1Br [Compound 51, N-[17-(5-bromo-6-methoxyisoquinolin-1-yloxy)-13-methyl-2,14-dioxo-3,13,15-triaza-tricyclo[13.3.0.0^4,6]octadec-7-ene-4-carbonyl](cyclopropyl)sulfonamide]	0.058	0.0017	
COc1ccc2c(O[C@@H]3C[C@H]4C(=O)N[C@]5(C(=O)NS(=O)(=O)C6CC6)C[C@H]5/C=C\CCCCN(C)C(=O)N4C3)nccc2c1-c1ccc(C)nc1 [Compound 52]	> 10		
COc1ccc(-c2c(OC)ccc3c(O[C@@H]4C[C@H]5C(=O)N[C@]6(C(=O)NS(=O)(=O)C7CC7)C[C@H]6/C=C\CCCCN(C)C(=O)N5C4)nccc23)cc1 [Compound 53, N-[17-[5-(4-methoxyphenyl)-6-methoxyisoquinolin-1-yloxy]-13-methyl-2,14-dioxo-3,13,15-triaza-tricyclo[13.3.0.0^4,6]octadec-7-ene-4-carbonyl](cyclopropyl)sulfonamide]	> 10		
COc1ccc2c(O[C@@H]3C[C@H]4C(=O)N[C@]5(C(=O)NS(=O)(=O)C6CC6)C[C@H]5/C=C\CCCCN(C)C(=O)N4C3)nccc2c1-c1ccccc1 [Compound 54, N-[17-[5-phenyl-6-methoxyisoquinolin-1-yloxy]-13-methyl-2,14-dioxo-3,13,15-triaza-tricyclo[13.3.0.0^4,6]octadec-7-ene-4-carbonyl](cyclopropyl) sulfonamide]	> 10		
COc1ccc2c(O[C@@H]3C[C@H]4C(=O)N[C@]5(C(=O)O)C[C@H]5/C=C\CCCCN(C)C(=O)N4C3)nccc2c1 [Compound 55, 17-(6-methoxyisoquinolin-1-yloxy)-13-methyl-2,14-dioxo-3,13,15-triaza-tricyclo[13.3.0.0^4,6]octadec-7-ene-4-carboxylic acid]	> 100	> 1	
COc1ccc2c(O[C@@H]3C[C@H]4C(=O)N[C@]5(C(=O)NS(=O)(=O)C6CC6)C[C@H]5/C=C\CCCCN(C)C(=O)N4C3)nc(-c3ccc(OC(F)(F)F)cc3)cc2c1 [Compound 58, N-[17-(3-(4-trifluoromethoxyphenyl)-6-methoxyisoquinolin-1-yloxy)-13-methyl-2,14-dioxo-3,13,15-triaza-tricyclo[13.3.0.0^4,6]octadec-7-ene-4-carbonyl](cyclopropyl)sulfonamide]	2.31		
COc1ccc2c(O[C@@H]3C[C@H]4C(=O)N[C@]5(C(=O)NS(=O)(=O)C6CC6)C[C@H]5/C=C\CCCCN(C)C(=O)N4C3)ncc(Br)c2c1 [Compound 66, N-[17-(4-bromo-6-methoxyisoquinolin-1-yloxy)-13-methyl-2,14-dioxo-3,13,15-triaza-tricyclo[13.3.0.0^4,6]octadec-7-ene-4-carbonyl](cyclopropyl) sulfonamide]	0.323		
COc1ccc2c(O[C@@H]3C[C@H]4C(=O)N[C@]5(C(=O)O)C[C@H]5/C=C\CCCCN(C)C(=O)N4C3)nc(-c3csc(NC(C)C)n3)cc2c1 [Compound 71, 17-[3-(2-isopropylaminothiazol-4-yl)-6-methoxyisoquinolin-1-yloxy]-13-methyl-2,14-dioxo-3,13,15-triaza-tricyclo[13.3.0.0^4,6]octadec-7-ene-4-carboxylic acid]	> 10		
